Values joined by “and” are separate entries in the source; they are usually repeats but may differ in a detail not shown here. Identical values can stand only once. Marks after values point to notes of the source that are not given here.
How the values were obtained:
[1] = design: species or system Long-Evans rats; details: rat, in vivo
Description: For comparison purposes, values for the blood, plasma, liver (Table 13) and uterus from each of these animals were included.

[2] = 9-month treatment with DHEA and/or EM-800 in the rat: urinary and serum markers of bone metabolism; type: in vivo
Description: It is particularly important to indicate that the combination of DHEA and EM-800 exerted unexpected beneficial effects on important biochemical parameters of bone metabolism. […] Moreover, no effect of DHEA could be detected on daily urinary calcium or phosphorus excretion (Luo et al., 1997). EM-800 decreased the urinary hydroxyproline/creatinine ratio by 48% while, similarly to DHEA, no effect of EM-800 was seen on urinary calcium or phosphorus excretion. EM-800, moreover, had no effect on serum alkaline phosphatase activity, a marker of bone formation while DHEA increased the value of the parameter by about 75% (Luo et al., 1997).

[3] = 12-month treatment of ovariectomized rats with DHEA alone or with Flutamide or EM-800: bone histomorphometry, bone markers, serum lipids; type: in vivo, rat; details: added to DHEA, OVX rats, 12 months
[4] = test system: ZR-75-1 human breast cancer xenografts; test: Growth and response of human ZR-75-1 breast tumor xenografts in estrone-supplemented OVX nude mice, DHEA and/or EM-800 for 9.5 months (Example 1); type: in vivo; details: 9.5 months; for Category of response: Complete (%) / Category of response: Complete (Number) / Category of response: Partial (%) / Category of response: Partial (Number) / Category of response: Progression (%) / Category of response: Progression (Number) / Category of response: Stable (%) / Category of response: Stable (Number) / Average tumor weight at end of experiment: E1-supplemented
[5] = Uterine, vaginal and body weight in estrone-supplemented OVX nude mice (Example 1); type: in vivo; details: E1-supplemented
Procedure: DHEA was dissolved in 50% ethanol 50% propylene glycol. […] Tumors were measured once a week with Vernier calipers.

[6] = 12-week oral EM-800 (0.5 mg/kg) in intact rats: serum 17β-estradiol, mammary gland and endometrium histology; type: in vivo, rat; details: 12 weeks
Procedure: The lobules (L) consist of a few alveoli. Insert. High magnification showing alveoli. • b) Animal treated with EM-800 (0.5 mg/kg, b w per day) for 12 weeks. […] Insert. High magnification showing atrophied alveolar cells.
The luminal epithelium (LE) is characterized by columnar epithelial cells while the glandular epithelium (GE) is rather cuboidal. The stroma contains several cellular elements and collagen fibers. • b) Animal treated with EM-800 (0.5 mg/kg, b w per day) during 12 weeks. […] The glandular epithelial cells have unstained cytophasm with no sign of activity. The stroma is highly cellular due to reduction in intercellular elements of the stroma.

[7] = test system: ZR-75-1 human breast cancer xenografts; test: Growth and response of human ZR-75-1 breast tumors in OVX nude mice, 7 antiestrogens for 161 days with or without estrone (Example 8); type: in vivo
Procedure: ZR-75-1 human breast cancer cells were obtained from the American Type Culture Collection (Rockville, Md.) and cultured in phenol red-free RPMI-1640 medium. […] (Saint-Constant, Québec, Canada). The mice (5 per cage) were housed in vinyl cages equipped with air filter lids, which were kept in laminar airflow hoods and maintained under pathogen-limiting conditions. The photoperiod was 12 hours of light and 12 hours of darkness (lights on at 07:15). Cages, bedding and food (Agway Pro-Lab R-M-H Diet #4018) were autoclaved before use. Water was autoclaved and provided ad libitum. Bilateral ovariectomy was performed under isoflurane-induced anesthesia. […] Randomization and treatments were started one week later. […] The estrone implants were then removed from the animals in the ovariectomized control group (OVX) and in groups that were to receive the antiestrogen alone. […] Tamoxifen was purchased from […]) while toremifene citrate was purchased from Orion (Espoo, Finland). […] The antiestrogen suspensions at the appropriate concentration were prepared each month, stored at 4° C. and used under constant agitation. Powder stock were hermetically stored at 4° C. […] Two perpendicular diameters were recorded and tumor area (mm2) was calculated using the formula: […] Tumor response was assessed at the end of the study or at death of each animal, if it occurred during the course of the experiment. In this case, only data of mice that survived for at least half of the study ([…]) were used in the tumor response analysis.

[8] = Endometrial epithelium thickness in OVX nude mice after 161 days of antiestrogen (Example 8); type: in vivo
Description: The 17 groups included two control groups (OVX and OVX+Estrone), seven groups supplemented with an estrone implant and treated with an antiestrogen and eight other groups that received an antiestrogen alone. The estrone implants were then removed from the animals in the ovariectomized control group (OVX) and in groups that were to receive the antiestrogen alone. […] Tamoxifen was purchased from […]) while toremifene citrate was purchased from Orion (Espoo, Finland). […] The antiestrogen suspensions at the appropriate concentration were prepared each month, stored at 4° C. and used under constant agitation. Powder stock were hermetically stored at 4° C. […] After 161 days of treatment, the remaining animals were anesthetized with isoflurane and killed by exsanguination. […] The uteri were prepared to evaluate endometrial thickness by image analysis performed with Image Pro-Plus (Media Cybernetics, Maryland, USA). […] Hematoxylin- and eosin-stained sections of mice uteri were analyzed. […] Mean epithelial cell height was measured in all animals of each group.

[9] = test system: ZR-75-1 human breast cancer xenografts; test: Tamoxifen and EM-652.HCl alone or combined on growth of ZR-75-1 xenografts in nude mice (FIG. 7); type: in vivo; details: ZR-75-1 xenografts in nude mice
[10] = DHEA 10 mg, EM-800 75 μg, alone or combined
[11] = DHEA 0.3 mg, EM-800 15 μg, or EM-800 15 μg + DHEA 0.3 mg
[12] = DHEA 1.0 mg, EM-800 50 μg, or EM-800 15 μg + DHEA 1.0 mg
[13] = DHEA 3.0 mg, EM-800 100 μg, or EM-800 15 μg + DHEA 3.0 mg
[14] = EM-800 15 μg, or EM-800 15 μg + DHEA 0.3 mg
[15] = EM-800 50 μg, or EM-800 15 μg + DHEA 1.0 mg
[16] = EM-800 100 μg, or EM-800 15 μg + DHEA 3.0 mg
[17] = absence of estrone, 200 μg daily, 161 days
[18] = estrone-supplemented, 50 μg daily, 161 days

CC1=C(c2ccc(O)cc2)[C@H](c2ccc(OCCN3CCCCC3)cc2)Oc2cc(O)ccc21 [EM-652]
accessibility to the CNS [1]: very poor accessibility

CC1=C(c2ccc(OC(=O)C(C)(C)C)cc2)[C@H](c2ccc(OCCN3CCCCC3)cc2)Oc2cc(OC(=O)C(C)(C)C)ccc21 [EM-800, (+)-7-pivaloyloxy-3-(4′-pivaloyloxyphenyl)-4-methyl-2-(4″-(2′″-piperidi-noethoxy)phenyl)-2H-benzopyran]
decrease of urinary hydroxyproline/creatinine ratio (marker of bone resorption) [2]: 48% | effect on daily urinary calcium or phosphorus excretion [2]: no effect | increase of serum alkaline phosphatase activity (marker of bone formation) [2]: no effect | Serum tALP [2, 10]: 114.11 ± 11.26 IU/L | Urine HP/Cr [2, 10]: 6.81 ± 0.84 μmol/mmol | Urine calcium [2, 10]: 17.44 ± 4.5 μmol/24 h/100 g | Urine phosphorus [2, 10]: 102.03 ± 25.13 μmol/24 h/100 g | reversal of the stimulatory effect of DHEA on serum alkaline phosphatase [3]: no significant effect | Inhibition of estrone-stimulated ZR-75-1 tumor size ([4]; daily DHEA 0.3 mg or EM-800 15 μg): 88% and 87.5% | Inhibition of estrone-stimulated ZR-75-1 tumor size ([4]; daily DHEA 1.0 mg or EM-800 50 μg): 93% and 93.5% | Inhibition of estrone-stimulated ZR-75-1 tumor size ([4]; daily DHEA 3.0 mg or EM-800 100 μg): 94% | Category of response: Complete (%) [4, 11]: 29.4% | Category of response: Complete (Number) [4, 11]: 5 | Category of response: Partial (%) [4, 11]: 5.9% | Category of response: Partial (Number) [4, 11]: 1 | Category of response: Progression (%) [4, 11]: 35.3% | Category of response: Progression (Number) [4, 11]: 6 | Category of response: Stable (%) [4, 11]: 29.4% | Category of response: Stable (Number) [4, 11]: 5 | Category of response: Complete (%) [4, 12]: 25.0% | Category of response: Complete (Number) [4, 12]: 4 | Category of response: Partial (%) [4, 12]: 18.8% | Category of response: Partial (Number) [4, 12]: 3 | Category of response: Progression (%) [4, 12]: 25.0% | Category of response: Progression (Number) [4, 12]: 4 | Category of response: Stable (%) [4, 12]: 31.2% | Category of response: Stable (Number) [4, 12]: 5 | Category of response: Complete (%) [4, 13]: 50.0% | Category of response: Complete (Number) [4, 13]: 8 | Category of response: Partial (%) [4, 13]: 0 (0) % | Category of response: Partial (Number) [4, 13]: 0 (0) | Category of response: Progression (%) [4, 13]: 31.2% | Category of response: Progression (Number) [4, 13]: 5 | Category of response: Stable (%) [4, 13]: 18.8% | Category of response: Stable (Number) [4, 13]: 3 | Average tumor weight at end of experiment ([4]; daily DHEA 0.3 mg, EM-800 15 μg, or EM-800 15 μg + DHEA 0.3 mg): 0.08 ± 0.03 g | Average tumor weight at end of experiment ([4]; daily DHEA 1.0 mg, EM-800 50 μg, or EM-800 15 μg + DHEA 1.0 mg): 0.03 ± 0.01 g | Average tumor weight at end of experiment ([4]; daily DHEA 3.0 mg, EM-800 100 μg, or EM-800 15 μg + DHEA 3.0 mg): 0.04 ± 0.03 g | UTERINE WEIGHT [5, 14]: 49 ± 3 mg | VAGINAL WEIGHT [5, 14]: 23 ± 1 mg | UTERINE WEIGHT [5, 15]: 36 ± 2 mg | VAGINAL WEIGHT [5, 15]: 15 ± 1 mg | UTERINE WEIGHT [5, 16]: 32 ± 1 mg | VAGINAL WEIGHT [5, 16]: 11 ± 1 mg | elevation of circulating 17β-estradiol versus intact animals ([6]; EM-800 0.5 mg/kg orally daily): 50% | effect on the endometrium (histology) ([6]; EM-800 0.5 mg/kg): marked atrophy | effect on the mammary gland (histology) ([6]; EM-800 0.5 mg/kg): marked atrophy | circulating levels of 17β-estradiol ([6]; intact rats, EM-800 0.5 mg/kg orally daily): 143.5 ± 7.8 pg/mL

CC/C(=C(\c1ccccc1)c1ccc(OCCN(C)C)cc1)c1ccccc1 [Tamoxifen, (Z)-2-[4-(1,2-diphenyl-1-butenyl)phenoxy]-N,N-dimethylethanamine]
increase of average tumor size over baseline (agonistic effect) [7, 17]: 196% | tumors in the progression category, % [7, 17]: 62% | tumors in the progression category, number of total [7, 17]: 16 of 26 | average tumor size above pretreatment values ([7]; estrone-stimulated, 50 μg oral daily, 23 weeks): 87% | progressing tumors, % of tumors [7, 18]: 65% | progressing tumors, number of total [7, 18]: 17 of 26 | inhibition of the stimulatory effect of estrone on epithelial height ([8]; 50 μg daily oral, estrone stimulation): 32% | height of uterine epithelial cells, % of the OVX control group value ([8]; 200 μg daily, absence of estrone): 155% | ENDOMETRIAL EPITHELIUM THICKNESS (μm) ± SEM ([8]; OVX + E1, antiestrogen 50 μg daily): 33.44^b,d ± 0.04 μm | ENDOMETRIAL EPITHELIUM THICKNESS (μm) ± SEM ([8]; OVX without E1, antiestrogen 200 μg daily): 28.47^b,d ± 0.05 μm | stimulatory effect on tumor growth [9]: approximately 100%
